This note sets out measurements from US11903912B2, “Composition for preventing and treating breast cancer including selenopsammaplin A as active ingredients” (Seoul National University R & DB Foundation, priority 2019, dated 2024).

What all share (format): cell-based
Assay [1] deals with A549 human lung cancer cells. In words: SRB cytotoxicity test, A549. The note with it: SRB assay, cultured 3 days. The protocol: (§1) A cytotoxicity test was performed using synthesized selenopsammaplin A and derivatives thereof (Lee S K et al […] Chem Biol Interact 115:215-28).
(§2) The cytotoxicity test was performed on a total of five representative cancer cell lines. The cytotoxicity of each compound was measured using an SRB assay method (human lung cancer cells, A549; human colon cancer cells, HCT116; human breast cancer cells, MDA-MB231; human liver cancer cells, SK-HEP-1; human gastric cancer cells, SNU638).
(§3) Each cell line was sub-cultured once or twice using Roswell Park Memorial Institute (RPMI) medium 1640 (RPMI 1640) or Dulbecco's Modified Eagle's Medium (DMEM) containing 10% fetal bovine serum (FBS) inactivated by heat, 100 units/mL of penicillin, 100 μg/mL of streptomycin, and 250 ng/mL of amphotericin B at 37° C. for 1 week under a 5% CO2 condition. All cells were […] in liquid nitrogen, and then passaged three or more times to be used in the experiment. The effects of compounds on cell growth were measured using a sulforhodamine B (SRB) method (Lee et al (1998) Chemico-Biol Interact 115:215-228).
(§4) Specifically, each human cancer cell line used in the present invention was sub-cultured in an RPMI medium containing 10% FBS, 1% PSF, and the like, and 10 μl of a sample dissolved in 10% DMSO and 190 μl (4-5×10^4 cells/ml) of the cell suspension were added to each well of a 96-well plate and cultured for 3 days. 190 μl of the cell suspension was added to at least 16 wells and cultured for 30 minutes, and used as a zero-day control. The cultured cells were fixed with 10% trichloroacetic acid (TCA) and then stained with an SRB solution, and the staining solution was dissolved with 10 mM Tris-base, and then absorbance at 515 nm was measured. Using the case of culturing in 10% DMSO as a control, cell viability according to each test material treatment was measured using Equation 1 below. Etoposide was used as a positive control. % Viability=(OD(sample)−OD(0-day))/(OD(10% DMSO)−OD(0-day))×100 [Equation 1]
(§5) Assuming that a control not-treated with the sample was set at 100%, the values of sample-treated groups were expressed as percentage with respect to the control, and each test material treatment results were obtained as the mean±SEM of two or three tests. The IC50 value is the concentration of the test material for a 50% survival rate.

Assay [2] deals with MDA-MB231 human breast cancer cells. In words: SRB cytotoxicity test, MDA-MB231. The following applies: SRB assay, cultured 3 days. As for the experimental part:
as §1, §2, §3, §4, §5

Assay [3] concerns SK-HEP-1 human liver cancer cells. In words: SRB cytotoxicity test, SK-HEP-1. The following applies: SRB assay, cultured 3 days. As for the experimental part: as §1, §2, §3, §4, §5
Background: In SRB staining, fixed cells bind dye roughly in proportion to their protein.

In assay [4] the test system is SNU638 human gastric cancer cells. In words: SRB cytotoxicity test, SNU638. The following applies: SRB assay, cultured 3 days. As for the experimental part:
as §1, §2, §3, §4, §5

The test system of assay [5] is HCT116 human colon cancer cells. Put plainly: SRB cytotoxicity test, HCT116. The following applies: SRB assay, cultured 3 days. As for the experimental part:
as §1, §2, §3, §4, §5

The target of a further assay is T1, DOT1L (Homo sapiens, UniProt Q8TEK3).
T1 construct: based on the finding that DOT1L was overexpressed in the breast cancer cell line; endogenous in cells
T1 sequence (Q8TEK3 whole entry): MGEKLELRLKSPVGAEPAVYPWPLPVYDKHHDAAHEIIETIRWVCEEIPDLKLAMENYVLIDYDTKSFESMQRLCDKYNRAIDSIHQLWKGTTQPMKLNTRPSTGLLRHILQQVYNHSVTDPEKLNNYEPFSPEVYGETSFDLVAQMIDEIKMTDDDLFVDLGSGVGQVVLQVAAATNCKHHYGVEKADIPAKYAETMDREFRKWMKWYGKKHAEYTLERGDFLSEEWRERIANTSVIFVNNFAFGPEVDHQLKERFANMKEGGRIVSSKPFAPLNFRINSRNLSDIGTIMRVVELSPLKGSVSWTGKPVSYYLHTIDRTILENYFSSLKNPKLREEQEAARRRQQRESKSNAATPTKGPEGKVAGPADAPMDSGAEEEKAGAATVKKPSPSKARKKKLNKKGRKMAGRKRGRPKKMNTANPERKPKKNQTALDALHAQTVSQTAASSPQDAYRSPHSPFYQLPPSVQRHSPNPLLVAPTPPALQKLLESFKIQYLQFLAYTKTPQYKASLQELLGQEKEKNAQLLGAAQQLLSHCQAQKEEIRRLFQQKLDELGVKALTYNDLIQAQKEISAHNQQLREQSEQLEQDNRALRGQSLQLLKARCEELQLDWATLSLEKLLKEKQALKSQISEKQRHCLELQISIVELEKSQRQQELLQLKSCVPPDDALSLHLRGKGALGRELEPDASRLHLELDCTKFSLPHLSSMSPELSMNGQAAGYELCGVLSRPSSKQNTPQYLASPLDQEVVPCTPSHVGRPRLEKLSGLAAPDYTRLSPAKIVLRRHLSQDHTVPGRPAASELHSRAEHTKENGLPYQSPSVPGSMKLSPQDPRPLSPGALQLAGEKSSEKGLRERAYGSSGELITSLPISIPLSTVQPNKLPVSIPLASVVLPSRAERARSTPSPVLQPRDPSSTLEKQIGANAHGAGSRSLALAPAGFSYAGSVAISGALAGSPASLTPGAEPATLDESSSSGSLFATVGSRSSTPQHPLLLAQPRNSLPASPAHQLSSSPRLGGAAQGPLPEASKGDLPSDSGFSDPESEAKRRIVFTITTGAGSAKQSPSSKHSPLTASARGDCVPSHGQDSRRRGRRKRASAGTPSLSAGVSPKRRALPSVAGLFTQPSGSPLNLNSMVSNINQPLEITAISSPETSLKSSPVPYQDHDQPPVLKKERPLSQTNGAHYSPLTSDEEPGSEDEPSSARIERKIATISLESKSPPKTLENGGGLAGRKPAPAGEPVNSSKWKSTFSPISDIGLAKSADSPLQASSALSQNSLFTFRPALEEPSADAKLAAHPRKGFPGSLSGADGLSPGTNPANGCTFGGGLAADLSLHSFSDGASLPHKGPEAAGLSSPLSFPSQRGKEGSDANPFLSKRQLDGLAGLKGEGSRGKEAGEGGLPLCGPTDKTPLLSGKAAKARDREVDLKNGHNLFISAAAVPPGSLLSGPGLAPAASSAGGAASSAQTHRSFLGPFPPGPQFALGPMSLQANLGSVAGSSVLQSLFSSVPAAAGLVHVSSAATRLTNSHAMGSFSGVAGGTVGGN
Put plainly: Inhibition of DOT1L methylation (H3K79) by western blotting. The following applies: breast cancer cell line, FIG. 3. The source says: As confirmed in Example 1, based on the finding that DOT1L was overexpressed in the breast cancer cell line, the effects of the derivatives of the present invention on the methylation of the histone 3 lysine 79 (H3K79) residue, which is an in-vivo target of DOT1L, were examined by western blotting.
On the technique in general: Immunoblotting shows a protein as a band on a membrane.

Turning to “(2E,2′E)-N,N′-(diselenediylbis(ethane-2,1-diyl))bis(3-(3-chloro-4-hydroxyphenyl)-2-(hydroxyimino)propanamide) [Compound 13]”, the IC50 (commonly the concentration that gives 50% inhibition) in assay [1] came to 20 nM; in assay [2], 170 nM; in assay [3], 110 nM; in assay [4] it was 10 nM.

Regarding “(2E,2′E)-N,N′-(diselenediylbis(ethane-2,1-diyl))bis(3-(3-fluoro-4-hydroxyphenyl)-2-(hydroxyimino)propanamide) [Compound 14]”, the IC50 in assay [1] is 20 nM; in assay [2] it was 190 nM; in assay [3], 130 nM; in assay [4] it was 20 nM.

For `O=C(NCCSSCCNC(=O)/C(Cc1ccc(O)c(Br)c1)=N/O)/C(Cc1ccc(O)c(Br)c1)=N/O` [Psammaplin A], the IC50 in assay [1] was found to be 1760 nM; in assay [5], 610 nM; in assay [2], 1310 nM; in assay [3], 1290 nM; in assay [4], 560 nM.

On to “(2E,2′E)-N,N′-(diselenediylbis(ethane-2,1-diyl))bis(3-(4-chlorophenyl)-2-(hydroxyimino)propanamide) [Compound 6]”, for which the IC50 in assay [1] came to 250 nM; in assay [5], 280 nM; in assay [2], 330 nM; in assay [3], 330 nM; in assay [4] it was 220 nM.

“(2E,2′E)-N,N′-(diselenediylbis(ethane-2,1-diyl))bis(3-(4-tert-butyl)phenyl)-2-(hydroxyimino)propanamide) [Compound 12]”: the half-maximal inhibitory concentration (IC50) in assay [1] was determined as 100 nM; in assay [5], 130 nM; in assay [2], 100 nM; in assay [3] it was 190 nM; in assay [4] it was 280 nM. Besides, the “inhibitory effect on H3K79 methylation” value against DOT1L was “excellent”.

Consider “(2E,2′E)-N,N′-(diselenediylbis(ethane-2,1-diyl))bis(3,4-dichlorophenyl)-2-(hydroxyimino)propanamide) [Compound 7]”, for which the IC50 worked out at 280 nM in assay [1]; 520 nM in assay [5]; 250 nM in assay [2]; 320 nM in assay [3]; 180 nM in assay [4].

For `COc1cc([C@@H]2c3cc4c(cc3[C@@H](O[C@@H]3O[C@@H]5CO[C@@H](C)O[C@H]5[C@H](O)[C@H]3O)[C@H]3COC(=O)[C@H]23)OCO4)cc(OC)c1O` [Etoposide, reference compound], the concentration for half-maximal inhibition (IC50) in assay [1] (A549, 72 h) worked out at 300 nM; in assay [5] (HCT-116, 72 h) it was 1200 nM; in assay [2] (MDA-MB-231, 72 h) it was 8700 nM; in assay [3] (SK-HEP1, 72 h), 400 nM; in assay [4] (SNU-638, 72 h) it was 200 nM.

Consider “(2E,2′E)-N,N′-(diselenediylbis(ethane-2,1-diyl))bis(3-(4-benzyloxy)phenyl)-2-(hydroxyimino)propanamide) [Compound 10]”, for which the concentration for half-maximal inhibition (IC50) in assay [1] is 140 nM; in assay [5], 100 nM; in assay [2] it was 140 nM; in assay [3], 280 nM; in assay [4] it was 410 nM. The “inhibitory effect on H3K79 methylation” value against DOT1L is recorded as “excellent”.

Regarding “(2E,2′E)-N,N′-(diselenediylbis(ethane-2,1-diyl))bis(3-(3,4-difluorophenyl)-2-(hydroxyimino)propanamide) [Compound 5]”, the IC50 in assay [1] worked out at 330 nM; in assay [5], 180 nM; in assay [2], 420 nM; in assay [3], 270 nM; in assay [4] it was 50 nM.

`O=C(NCC[Se][Se]CCNC(=O)/C(Cc1ccc(Br)cc1)=N/O)/C(Cc1ccc(Br)cc1)=N/O` [Compound 8, (2E,2′E)-N,N′-(diselenediylbis(ethane-2,1-diyl))bis(3-(4-bromophenyl)-2-(hydroxyimino)propanamide)]: the half-inhibitory concentration (IC50) in assay [1] worked out at 310 nM; in assay [5] it was 170 nM; in assay [2] it was 390 nM; in assay [4], 150 nM.

As for “(2E,2′E)-N,N′-(diselenediylbis(ethane-2,1-diyl))bis(2-(hydroxyimino)-3-(4-nitrophenyl)propanamide) [Compound 11]”, the IC50 was 90 nM in assay [1]; 90 nM in assay [5]; 90 nM in assay [2]; 170 nM in assay [3]; 60 nM in assay [4]. The “inhibitory effect on H3K79 methylation” value on DOT1L is on record as “excellent”.

`O=C(NCC[Se][Se]CCNC(=O)/C(Cc1ccc(O)c(Br)c1)=N/O)/C(Cc1ccc(O)c(Br)c1)=N/O` [Compound 1, (2E,2′E)-N,N′-(diselenediylbis(ethane-2,1-diyl))bis(3-(3-bromo-4-hydroxyphenyl)-2-(hydroxyimino)propanamide)]: the IC50 in assay [1] came out at 30 nM; in assay [2], 160 nM; in assay [3], 210 nM; in assay [4], 20 nM. Besides, at DOT1L, the “inhibitory effect on H3K79 methylation” value is recorded as “excellent”.

As to “(2E,2′E)-N,N′-(diselenediylbis(ethane-2,1-diyl))bis(3-(4-ethoxyphenyl)-2-(hydroxyimino)propanamide) [Compound 9]”, the concentration for half-maximal inhibition (IC50) in assay [1] turned out to be 50 nM; in assay [5], 70 nM; in assay [2], 200 nM; in assay [3], 180 nM; in assay [4], 30 nM. The “inhibitory effect on H3K79 methylation” value on DOT1L is on record as “excellent”.

Regarding “(2E,2′E)-N,N′-(diselenediylbis(ethane-2,1-diyl))bis(2-(hydroxyimino)-3-(naphthalene-2-yl)propanamide) [Compound 3]”, the IC50 came out at 380 nM in assay [1]; 120 nM in assay [5]; 190 nM in assay [2]; 170 nM in assay [3]; 270 nM in assay [4].

As to `O=C(NCC[Se][Se]CCNC(=O)/C(Cc1ccc(F)cc1)=N/O)/C(Cc1ccc(F)cc1)=N/O` [Compound 4, (2E,2′E)-N,N′-(diselenediylbis(ethane-2,1-diyl))bis(3-(4-fluorophenyl)-2-(hydroxyimino)propanamide)], the IC50 in assay [1] stood at 100 nM; in assay [5] it was 110 nM; in assay [2], 130 nM; in assay [3], 140 nM; in assay [4] it was 70 nM.
